Data reported in patent publication US10221161B2, “Inhibitors of plasma kallikrein” (Kalvista Pharmaceuticals Limited, priority 2013, dated 2019).

Legend:
Human plasma kallikrein = Human plasma kallikrein (Homo sapiens (Human), UniProt P03952); assay: Determination of the IC50 for plasma kallikrein (fluorogenic substrate H-DPro-Phe-Arg-AFC); type: biochemical; details: 37° C., read-out: IC50 (human PKal)
Experimental: Determination of the IC50 Plasma Kallikrein Plasma kallikrein inhibitory activity in vitro was determined using standard published methods (see e.g. Johansen et al., Int. J. Tiss. […] Shori et al., Biochem. Pharmacol., 1992, 43, 1209; Stürzebecher et al., Biol. Chem. Hoppe-Seyler, 1992, 373, 1025). Human plasma kallikrein (Protogen) was incubated at 37° C. with the fluorogenic substrate […] and various concentrations of the test compound.

Human KLK1 = Human KLK1 (Homo sapiens (Human), UniProt P06870); assay: Determination of the IC50 for KLK1 (fluorogenic substrate H-DVal-Leu-Arg-AFC); type: biochemical; details: human KLK1, 37° C.
Summary of the method: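 Inhibition of human KLK1 (Callbiochem) was measured in vitro following standard published methods. The enzyme was incubated at 37° C. with the fluorogenic substrate H-DVal-Leu-Arg-AFC across a range of test compound concentrations. Residual activity, taken as the initial reaction rate, was followed by […], and IC50 values were calculated.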

Chain of Human plasma kallikrein (P03952 391-638 limits assumed): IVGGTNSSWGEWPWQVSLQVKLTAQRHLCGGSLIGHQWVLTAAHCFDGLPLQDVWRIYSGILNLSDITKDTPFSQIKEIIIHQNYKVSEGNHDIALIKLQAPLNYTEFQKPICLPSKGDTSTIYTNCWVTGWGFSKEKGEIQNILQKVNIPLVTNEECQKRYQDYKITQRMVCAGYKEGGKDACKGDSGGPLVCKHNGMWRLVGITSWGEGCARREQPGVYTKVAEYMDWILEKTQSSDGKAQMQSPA
Chain of Human plasma kallikrein (P03952 20-390 partner limits assumed): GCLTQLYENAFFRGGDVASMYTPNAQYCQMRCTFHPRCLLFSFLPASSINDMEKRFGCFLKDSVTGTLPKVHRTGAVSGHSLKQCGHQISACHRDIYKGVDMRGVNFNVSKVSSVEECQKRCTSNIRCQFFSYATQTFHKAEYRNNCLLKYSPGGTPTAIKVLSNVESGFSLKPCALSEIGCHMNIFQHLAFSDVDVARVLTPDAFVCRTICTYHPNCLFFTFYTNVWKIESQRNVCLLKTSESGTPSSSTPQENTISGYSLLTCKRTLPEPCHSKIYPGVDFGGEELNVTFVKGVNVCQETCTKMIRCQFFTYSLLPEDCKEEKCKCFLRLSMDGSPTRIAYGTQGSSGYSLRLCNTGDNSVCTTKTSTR
Chain of Human KLK1 (P06870 25-262): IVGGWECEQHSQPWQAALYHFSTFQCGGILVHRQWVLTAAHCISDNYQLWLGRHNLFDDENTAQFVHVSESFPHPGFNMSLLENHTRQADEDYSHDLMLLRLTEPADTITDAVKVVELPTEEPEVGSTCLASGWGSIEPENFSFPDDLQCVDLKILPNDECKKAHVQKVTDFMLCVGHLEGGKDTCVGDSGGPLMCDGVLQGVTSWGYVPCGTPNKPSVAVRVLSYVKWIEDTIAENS

SMILES | IC50 (Human plasma kallikrein) | IC50 (Human KLK1)
Cc1cnn(Cc2ccc(Cc3cncc(C(=O)NCc4c(C)cc(CN)cc4C)c3)cc2)c1 [Example 94, N-{[4-(Aminomethyl)-2,6-dimethylphenyl]methyl}-5-({4-[(4-methylpyrazol-1-yl)methyl]phenyl}methyl)pyridine-3-carboxamide] | 7.47 nM | > 40000 nM
Cc1cnn(Cc2ccc(Cc3cncc(C(=O)NCc4ccc(CN)cc4C)c3)cc2)c1 [Example 93, N-{[4-(Aminomethyl)-2-methylphenyl]methyl}-5-({4-[(4-methylpyrazol-1-yl)methyl]phenyl}methyl)pyridine-3-carboxamide] | 14.4 nM | > 40000 nM
Nc1nccc2cc(CNC(=O)c3cncc(Cc4ccnc(N5CCC(F)C5)c4)c3)ccc12 (centres unmarked) [Example 82, N-[(1-Aminoisoquinolin-6-yl)methyl]-5-{[2-(3-fluoropyrrolidin-1-yl)pyridin-4-yl]methyl}pyridine-3-carboxamide] | 67.8 nM | 4000 nM
COCCOc1ccc(Cc2cncc(C(=O)NCc3ccc4c(N)nccc4c3)c2)cc1 [Example 34, N-[(1-Aminoisoquinolin-6-yl)methyl]-5-{[4-(2-methoxyethoxy)phenyl]methyl}pyridine-3-carboxamide] | 1020 nM | > 40000 nM
